Experimental data taken from ChEMBL document CHEMBL3797052 (Eur J Med Chem, 2016).

How the values were obtained:
SN12C [1] = test: Antiproliferative activity against human SN12C cells assessed as growth inhibition after 48 hrs by sulforhodamine B assay; type: functional; details: for CC50: read-out: LC50 (the source's name)
[2] = Antiproliferative activity against human RXF393 cells assessed as growth inhibition after 48 hrs by sulforhodamine B assay; type: functional; details: RXF 393, 48 h; for CC50: read-out: LC50 (the source's name)
786-0 [3] = test: Antiproliferative activity against human 786-0 cells assessed as growth inhibition after 48 hrs by sulforhodamine B assay; type: functional; details: 786-0, 48 h
MDA-MB-468 = test: Antiproliferative activity against human MDA-MB-468 cells assessed as cell growth at […] after 48 hrs by sulforhodamine B assay; type: functional; details: MDA-MB-468, 48 h, read-out: Activity
[4] = Antiproliferative activity against human HOP62 cells assessed as cell growth at 10^-7 M after 48 hrs by sulforhodamine B assay; type: functional; details: HOP-62, 48 h, read-out: Activity
NCI-H460 = test: Antiproliferative activity against human NCI-H460 cells assessed as cell growth at 10^-7 M after 48 hrs by sulforhodamine B assay; type: functional; details: NCI-H460, 48 h, read-out: Activity
[5] = Antiproliferative activity against human HCT15 cells assessed as cell growth at 10^-7 M after 48 hrs by sulforhodamine B assay; type: functional; details: HCT-15, 48 h, read-out: Activity
[6] = Antiproliferative activity against human IGROV1 cells assessed as growth inhibition after 48 hrs by sulforhodamine B assay; type: functional; details: IGROV-1, 48 h; for CC50: read-out: LC50 (the source's name)
Malme-3M = test: Antiproliferative activity against human MALME-3M cells assessed as cell growth at 10^-7 M after 48 hrs by sulforhodamine B assay; type: functional; details: read-out: Activity
M14 = test: Antiproliferative activity against human M14 cells assessed as cell growth at 10^-7 M after 48 hrs by sulforhodamine B assay; type: functional; details: M14, 48 h, read-out: Activity
SN12C [7] = test: Antiproliferative activity against human SN12C cells assessed as cell growth at 10^-7 M after 48 hrs by sulforhodamine B assay; type: functional; details: read-out: Activity
[8] = Antiproliferative activity against human HCT116 cells assessed as growth inhibition after 48 hrs by sulforhodamine B assay; type: functional; details: HCT-116, 48 h
[9] = Antiproliferative activity against human BT549 cells assessed as growth inhibition after 48 hrs by sulforhodamine B assay; type: functional; details: BT-549, 48 h; for CC50: read-out: LC50 (the source's name)
[10] = target: Serine/threonine-protein kinase B-raf (Homo sapiens, UniProt P15056, V600E); test: Inhibition of BRAF V600E mutant (unknown origin) measured after 40 mins by scintillation counting
CYP3A4 = CYP3A4 (Homo sapiens, UniProt P08684); test: Inhibition of recombinant human CYP3A4 assessed as remaining enzyme activity using CYP3A4 blue as substrate at 10 uM after 5 mins in presence of NADP by fluorescence plate reader analysis; type: ADME; details: recombinant human CYP3A4, probe CYP3A4 blue, read-out: Activity
K562 = test: Antiproliferative activity against human K562 cells assessed as cell growth at 10^-8 M after 48 hrs by sulforhodamine B assay; type: functional; details: K562, 48 h, read-out: Activity
NCI-H23 = test: Antiproliferative activity against human NCI-H23 cells assessed as cell growth at 10^-8 M after 48 hrs by sulforhodamine B assay; type: functional; details: NCI-H23, 48 h, read-out: Activity
[11] = Antiproliferative activity against human HCC2998 cells assessed as cell growth at 10^-8 M after 48 hrs by sulforhodamine B assay; type: functional; details: HCC 2998, 48 h, read-out: Activity
[12] = Antiproliferative activity against human SNB75 cells assessed as cell growth at 10^-8 M after 48 hrs by sulforhodamine B assay; type: functional; details: SNB-75, 48 h, read-out: Activity
T47D = test: Antiproliferative activity against human T47D cells assessed as cell growth at 10^-7 M after 48 hrs by sulforhodamine B assay; type: functional; details: read-out: Activity
[13] = Antiproliferative activity against human SF295 cells assessed as cell growth at 10^-6 M after 48 hrs by sulforhodamine B assay; type: functional; details: SF-295, 48 h, read-out: Activity
A549 = test: Antiproliferative activity against human A549/ATCC cells assessed as cell growth at 10^-4 M after 48 hrs by sulforhodamine B assay; type: functional; details: A549, 48 h, read-out: Activity
U-251 = test: Antiproliferative activity against human U251 cells assessed as cell growth at 10^-4 M after 48 hrs by sulforhodamine B assay; type: functional; details: U-251, 48 h, read-out: Activity
[14] = Antiproliferative activity against human NCI-ADR-RES cells assessed as cell growth at 10^-8 M after 48 hrs by sulforhodamine B assay; type: functional; details: read-out: Activity
ACHN = test: Antiproliferative activity against human ACHN cells assessed as cell growth at 10^-8 M after 48 hrs by sulforhodamine B assay; type: functional; details: read-out: Activity
[15] = Antiproliferative activity against human DU145 cells assessed as cell growth at 10^-8 M after 48 hrs by sulforhodamine B assay; type: functional; details: DU-145, 48 h, read-out: Activity
MDA-MB-435 = test: Antiproliferative activity against human MDA-MB-435 cells assessed as cell growth at 10^-6 M after 48 hrs by sulforhodamine B assay; type: functional; details: MDA-MB-435, 48 h, read-out: Activity
[16] = Antiproliferative activity against human OVCAR8 cells assessed as cell growth at 10^-6 M after 48 hrs by sulforhodamine B assay; type: functional; details: OVCAR-8, 48 h, read-out: Activity
786-0 [17] = test: Antiproliferative activity against human 786-0 cells assessed as cell growth at 10^-6 M after 48 hrs by sulforhodamine B assay; type: functional; details: 786-0, 48 h, read-out: Activity
MDA-MB-231 [18] = test: Antiproliferative activity against human MDA-MB-231 cells assessed as cell growth at 10^-6 M after 48 hrs by sulforhodamine B assay; type: functional; details: MDA-MB-231, 48 h, read-out: Activity
SK-MEL-5 = test: Antiproliferative activity against human SK-MEL-5 cells assessed as cell growth at 10^-4 M after 48 hrs by sulforhodamine B assay; type: functional; details: SK-MEL-5, 48 h, read-out: Activity
[19] = Antiproliferative activity against human OVCAR4 cells assessed as cell growth at 10^-4 M after 48 hrs by sulforhodamine B assay; type: functional; details: OVCAR-4, 48 h, read-out: Activity
[20] = Antiproliferative activity against human TK10 cells assessed as cell growth at 10^-4 M after 48 hrs by sulforhodamine B assay; type: functional; details: TK-10, 48 h, read-out: Activity
MDA-MB-231 [21] = test: Antiproliferative activity against human MDA-MB-231 cells assessed as cell growth at 10^-4 M after 48 hrs by sulforhodamine B assay; type: functional; details: MDA-MB-231, 48 h, read-out: Activity
[22] = Antiproliferative activity against human MOLT4 cells assessed as growth inhibition after 48 hrs by sulforhodamine B assay; type: functional; details: MOLT-4, 48 h

Sequence of Serine/threonine-protein kinase B-raf (P15056 2-766 V600E limits assumed): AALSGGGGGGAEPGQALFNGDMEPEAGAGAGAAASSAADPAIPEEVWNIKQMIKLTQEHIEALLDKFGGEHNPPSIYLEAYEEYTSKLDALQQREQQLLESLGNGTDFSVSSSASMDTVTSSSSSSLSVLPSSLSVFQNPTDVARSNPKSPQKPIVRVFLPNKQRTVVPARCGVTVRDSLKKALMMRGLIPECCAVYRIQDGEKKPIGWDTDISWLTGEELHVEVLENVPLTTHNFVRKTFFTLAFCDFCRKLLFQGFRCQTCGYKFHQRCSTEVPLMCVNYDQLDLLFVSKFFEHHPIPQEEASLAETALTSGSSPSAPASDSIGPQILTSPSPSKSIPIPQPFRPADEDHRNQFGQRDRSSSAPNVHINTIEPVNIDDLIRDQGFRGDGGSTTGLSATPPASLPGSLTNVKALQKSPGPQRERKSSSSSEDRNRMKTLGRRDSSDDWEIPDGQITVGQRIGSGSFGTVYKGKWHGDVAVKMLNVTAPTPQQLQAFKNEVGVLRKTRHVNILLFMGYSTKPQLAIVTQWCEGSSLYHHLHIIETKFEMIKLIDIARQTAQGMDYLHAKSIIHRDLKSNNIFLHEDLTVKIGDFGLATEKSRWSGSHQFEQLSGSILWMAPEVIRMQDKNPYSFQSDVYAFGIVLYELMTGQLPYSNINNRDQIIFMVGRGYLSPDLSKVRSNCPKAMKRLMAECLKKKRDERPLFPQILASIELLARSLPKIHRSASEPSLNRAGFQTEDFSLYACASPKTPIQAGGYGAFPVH
Sequence of CYP3A4 (P08684 whole entry): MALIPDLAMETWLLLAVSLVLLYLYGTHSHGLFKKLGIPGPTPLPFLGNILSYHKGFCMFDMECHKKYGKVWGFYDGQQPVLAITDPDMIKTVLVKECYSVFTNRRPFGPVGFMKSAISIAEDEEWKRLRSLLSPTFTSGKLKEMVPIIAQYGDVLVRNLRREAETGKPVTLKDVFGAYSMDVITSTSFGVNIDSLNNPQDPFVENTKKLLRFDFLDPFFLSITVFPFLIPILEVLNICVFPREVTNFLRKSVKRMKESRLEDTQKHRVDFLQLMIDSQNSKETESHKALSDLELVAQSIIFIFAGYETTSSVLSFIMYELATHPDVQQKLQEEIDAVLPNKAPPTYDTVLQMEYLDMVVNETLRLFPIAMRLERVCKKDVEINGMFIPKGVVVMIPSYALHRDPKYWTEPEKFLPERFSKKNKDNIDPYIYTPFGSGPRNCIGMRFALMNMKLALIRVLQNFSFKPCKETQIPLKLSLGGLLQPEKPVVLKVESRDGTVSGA

With `CNC(=O)c1cc(Oc2ccc3nc(NC(=O)Nc4cc(C(F)(F)F)cc(C(F)(F)F)c4)sc3c2)ccn1` the GI50 (SN12C [1]) was 1.64 µM, the TGI (SN12C [1]) was 3.79 µM and the CC50 (SN12C [1]) was 8.76 µM. For the same compound, the GI50 [2] was 1.25 µM, the TGI [2] was 2.99 µM and the CC50 [2] was 7.16 µM. The GI50 (786-0 [3]) was 1.42 µM, the LC50 (786-0 [3]) was 5.76 µM and the TGI (786-0 [3]) was 2.86 µM. It also gave a growth at 0.01 µM (MDA-MB-468) of 84%, a growth at 0.1 µM [4] of 91% and a growth at 0.1 µM (NCI-H460) of 108%. For the same compound, the growth at 0.1 µM [5] was 100%, the GI50 [6] was 1.25 µM and the TGI [6] was 3.16 µM. For the same compound, the CC50 [6] was 8.01 µM, the growth at 0.1 µM (Malme-3M) was 90% and the growth at 0.1 µM (M14) was 104%. It also gave a growth at 0.1 µM (SN12C [7]) of 104%, a GI50 [8] of 1.12 µM and an LC50 (concentration killing 50% of the starting cells) [8] of 5.37 µM. It also gave a TGI [8] of 2.46 µM, a GI50 [9] of 1.34 µM and a TGI [9] of 3.07 µM. For the same compound, the CC50 [9] was 7.05 µM, the IC50 [10] was 1.23 µM and the activity at 5 min, 10 µM (CYP3A4) was 50.6%. The growth at 0.01 µM (K562) was 104%, the growth at 0.01 µM (NCI-H23) was 93% and the growth at 0.01 µM [11] was 93%. The growth at 0.01 µM [12] was 77%, the growth at 0.1 µM (T47D) was 89% and the growth at 1 µM [13] was 55%. For the same compound, the growth at 100 µM (A549) was -97%, the growth at 100 µM (U-251) was -100% and the growth at 0.01 µM [14] was 101%. The growth at 0.01 µM (ACHN) was 94%, the growth at 0.01 µM [15] was 101% and the growth at 1 µM (MDA-MB-435) was 52%. For the same compound, the growth at 1 µM [16] was 70%, the growth at 1 µM (786-0 [17]) was 75% and the growth at 1 µM (MDA-MB-231 [18]) was 46%. It also gave a growth at 100 µM (SK-MEL-5) of -72%, a growth at 100 µM [19] of -57% and a growth at 100 µM [20] of -87%. The growth at 100 µM (MDA-MB-231 [21]) was -59%.

Compound `CNC(=O)c1cc(Oc2ccc3nc(NC(=O)c4cc(C(F)(F)F)cc(C(F)(F)F)c4)sc3c2)ccn1` has a GI50 (SN12C [1]) of 3.22 µM, a TGI (SN12C [1]) of 12.5 µM and a CC50 (SN12C [1]) of 89.8 µM. It also gave a GI50 [2] of 2.79 µM, a TGI [2] of 8.37 µM and a CC50 [2] of 40 µM. It also gave a GI50 (786-0 [3]) of 2.55 µM, an LC50 (786-0 [3]) of 45.2 µM and a TGI (786-0 [3]) of 8.07 µM. The growth at 0.01 µM (MDA-MB-468) was 92%, the growth at 0.1 µM [4] was 92% and the growth at 0.1 µM (NCI-H460) was 105%. The growth at 0.1 µM [5] was 96%, the GI50 [6] was 4.26 µM and the TGI [6] was 27 µM. The CC50 [6] was > 100 µM, the growth at 0.1 µM (Malme-3M) was 90% and the growth at 0.1 µM (M14) was 91%. For the same compound, the growth at 0.1 µM (SN12C [7]) was 101%, the GI50 [8] was 3.41 µM and the LC50 (concentration killing 50% of the starting cells) [8] was 42.4 µM. For the same compound, the TGI [8] was 11.9 µM, the GI50 [22] was 2.61 µM and the LC50 [22] was > 100 µM. For the same compound, the TGI [22] was 12.4 µM, the GI50 [9] was 3.05 µM and the TGI [9] was 12.4 µM. For the same compound, the CC50 [9] was > 100 µM, the IC50 [10] was 4.3 µM and the activity at 5 min, 10 µM (CYP3A4) was 72.9%. It also gave a growth at 0.01 µM (K562) of 103%, a growth at 0.01 µM (NCI-H23) of 96% and a growth at 0.01 µM [11] of 105%. For the same compound, the growth at 0.01 µM [12] was 82%, the growth at 0.1 µM (T47D) was 88% and the growth at 1 µM [13] was 83%. The growth at 100 µM (A549) was -67%, the growth at 100 µM (U-251) was -73% and the growth at 0.01 µM [14] was 102%. For the same compound, the growth at 0.01 µM (ACHN) was 104%, the growth at 0.01 µM [15] was 105% and the growth at 1 µM (MDA-MB-435) was 96%. For the same compound, the growth at 1 µM [16] was 90%, the growth at 1 µM (786-0 [17]) was 91% and the growth at 1 µM (MDA-MB-231 [18]) was 114%. The growth at 100 µM (SK-MEL-5) was -89%, the growth at 100 µM [19] was -13% and the growth at 100 µM [20] was -58%. It also gave a growth at 100 µM (MDA-MB-231 [21]) of -67%.

Work on `CNC(=O)c1cc(Oc2ccc(NC(=O)Nc3ccc(Cl)c(C(F)(F)F)c3)cc2)ccn1` [SORAFENIB] yielded a GI50 (SN12C [1]) of 2.51 µM, a TGI (SN12C [1]) of 10 µM and a CC50 (SN12C [1]) of 39.8 µM. The GI50 [2] was 3.16 µM, the TGI [2] was 10 µM and the CC50 [2] was 39.8 µM. It also gave a GI50 (786-0 [3]) of 3.16 µM, a TGI (786-0 [3]) of 10 µM and a GI50 [6] of 2.51 µM. The TGI [6] was 15.9 µM, the CC50 [6] was 79.4 µM and the TGI [8] was 3.98 µM. For the same compound, the GI50 [22] was 3.16 µM, the TGI [22] was 100 µM and the GI50 [9] was 3.16 µM. It also gave a TGI [9] of 5.01 µM and a CC50 [9] of 15.8 µM.
